According to US20240140957A1, “BRIDGED COMPOUNDS AS KRAS G12D INHIBITOR AND DEGRADER AND THE USE THEREOF” (BeiGene Switzerland GmbH, priority 2021, published 2024):

Assays:
[1] = test system: pERK1/2 (THR202/TYR204) in AsPC-1 cells; assay: pERK Assay (HTRF) in AsPC-1 cells; format: cell-based; settings: Homo sapiens, ASPC1, 2 h compound treatment
[2] = target: GDP-loaded WT KRAS (Homo sapiens, UniProt P01116); assay: KRAS WT Probe Displacement Assay; format: binding; settings: WT KRAS 3 nM, biotinylated probe 1 60 nM; read-out: KRAS WT Probe Displacement Assay IC50
[3] = target: GDP-loaded KRAS G12D (Homo sapiens, UniProt P01116, G12D); assay: KRAS G12D Probe Displacement Assay; format: binding; settings: KRAS G12D 0.5 nM, biotinylated probe 2 4 nM; read-out: KRAS G12D Probe Displacement Assay IC50
Sequence of GDP-loaded KRAS G12D (P01116 1-188 isoform P01116-2 G12D): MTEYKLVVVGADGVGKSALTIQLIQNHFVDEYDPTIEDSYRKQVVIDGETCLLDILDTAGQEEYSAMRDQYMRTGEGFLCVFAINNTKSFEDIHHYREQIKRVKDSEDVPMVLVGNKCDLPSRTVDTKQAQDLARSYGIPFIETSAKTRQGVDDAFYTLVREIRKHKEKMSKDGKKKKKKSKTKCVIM

Sequence of GDP-loaded WT KRAS (P01116 1-188 isoform P01116-2): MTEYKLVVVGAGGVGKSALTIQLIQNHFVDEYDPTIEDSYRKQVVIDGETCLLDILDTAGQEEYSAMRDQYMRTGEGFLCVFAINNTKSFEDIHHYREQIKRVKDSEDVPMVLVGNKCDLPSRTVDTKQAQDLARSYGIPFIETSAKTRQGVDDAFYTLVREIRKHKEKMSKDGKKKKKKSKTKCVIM

Structure (SMILES)	IC50 [1]	IC50 [2]	IC50 [3]
CN1CCCC1(C)COc1nc(N2CC3CCC(C2)N3)c2cc(Cl)c(-c3ccc(F)c4sc(N)nc34)c(F)c2n1 (stereo not drawn) [Example E61, 4-(4-(3,8-diazabicyclo [3.2.1]octan-3-yl)-6-chloro-2-((1,2-dimethylpyrrolidin-2-yl)methoxy)-8-fluoroquinazolin-7-yl)-7-fluorobenzo[d]thiazol-2-amine]	2000 nM	240 nM	2.6 nM
Nc1nc2c(-c3c(Cl)cc4c(N5CC6CCC(C5)N6)nc(OC[C@@]56CCCN5C[C@H](F)C6)nc4c3Cl)ccc(F)c2s1 [Example E63, 4-(4-(3,8-diazabicyclo[3.2.1]octan-3-yl)-6,8-dichloro-2-(((2R,7aS)-2-fluorotetrahydro-1H-pyrrolizin-7a(5H)-yl)methoxy)quinazolin-7-yl)-7-fluorobenzo[d]thiazol-2-amine]	93 nM	8.5 nM	0.22 nM
Nc1nc2c(-c3c(C(F)(F)F)cc4c(N5CC6CCC(C5)N6)nc(OC[C@@]56CCCN5C[C@H](F)C6)nc4c3Cl)ccc(F)c2s1 [Example E64, 4-(4-(3,8-diazabicyclo[3.2.1]octan-3-yl)-8-chloro-2-(((2R,7aS)-2-fluorotetrahydro-1H-pyrrolizin-7a(5H)-yl)methoxy)-6-(trifluoromethyl)quinazolin-7-yl)-7-fluorobenzoI[d]thiazol-2-amine]	38 nM	5.1 nM	0.33 nM
CN1C[C@H](F)CC1(C)COc1nc(N2CC3CCC(C2)N3)c2cc(Cl)c(-c3ccc(F)c4sc(N)nc34)c(F)c2n1 (stereo partly drawn) [Example E89, 4-(4-(3,8-diazabicyclo[3.2.1]octan-3-yl)-6-chloro-8-fluoro-2-(((4R)-4-fluoro-1,2-dimethylpyrrolidin-2-yl)methoxy)quinazolin-7-yl)-7-fluorobenzo[d]thiazol-2-amine]	556 nM	121 nM	2.4 nM
CN(C)CC1(COc2nc(N3CC4CCC(C3)N4)c3cc(Cl)c(-c4ccc(F)c5sc(N)nc45)c(F)c3n2)CCC1 [Example E68, 4-(4-(3,8-diazabicyclo[3.2.1]octan-3-yl)-6-chloro-2-((1-((dimethylamino)-methyl)cyclobutyl)methoxy)-8-fluoroquinazolin-7-yl)-7-fluorobenzo[d]thiazol-2-amine]	590 nM	45 nM	0.58 nM
Nc1nc2c(-c3c(Cl)cc4c(N5CC6CCC(C5)N6)nc(OC[C@@]56CCCN5C[C@H](F)C6)nc4c3F)c(F)cc(F)c2s1 [Example E75, 4-(4-(3,8-diazabicyclo[3.2.1]octan-3-yl)-6-chloro-8-fluoro-2-(((2R,7aS)-2-fluorotetrahydro-H-pyrrolizin-7a(5H)-yl)methoxy)quinazolin-7-yl)-5,7-difluorobenzo[d]thiazol-2-amine]	40 nM	1.8 nM	0.23 nM
Nc1nc2c(-c3c(C(F)(F)F)cc4c(N5CC6CC(C5)N6)nc(OC[C@@]56CCCN5C[C@H](F)C6)nc4c3F)ccc(F)c2s1 [Example E74, 4-(4-(3,6-diazabicyclo[3.1.1]heptan-3-yl)-8-fluoro-2-(((2R,7aS)-2-fluorotetrahydro-1H-pyrrolizin-7a(5H)-yl)methoxy)-6-(trifluoromethyl)quinazolin-7-yl)-7-fluorobenzo[d]thiazol-2-amine]	349 nM	4.8 nM	0.42 nM
Cc1ccc(-c2c(C(F)(F)F)cc3c(N4CC5CCC(C4)N5)nc(OC[C@@]45CCCN4C[C@H](F)C5)nc3c2F)c2nc(N)sc12 [Example E73, 4-(4-(3,8-diazabicyclo[3.2.1]octan-3-yl)-8-fluoro-2-(((2R,7aS)-2-fluorotetrahydro-1H-pyrrolizin-7a(5H)-yl)methoxy)-6-(trifluoromethyl)quinazolin-7-yl)-7-methylbenzo[d]thiazol-2-amine]	68 nM	15.5 nM	0.57 nM
Cc1c(F)c(N)nc(-c2c(Cl)cc3c(N4CC5CCC(C4)N5)nc(OC[C@@]45CCCN4C[C@H](F)C5)nc3c2F)c1C(F)(F)F [Example E78, 6-(4-(3,8-diazabicyclo[3.2.1]octan-3-yl)-6-chloro-8-fluoro-2-(((2R,7aS)-2-fluorotetrahydro-1H-pyrrolizin-7a(5H)-yl)methoxy)quinazolin-7-yl)-3-fluoro-4-methyl-5-(trifluoromethyl)pyridin-2-amine]	159 nM	101 nM	0.99 nM
Cc1c(-c2ccc(F)c3sc(N)nc23)c(C(F)(F)F)cc2c(N3CC4CCC(C3)N4)nc(OC[C@@]34CCCN3C[C@H](F)C4)nc12 [Example E76, 4-(4-(3,8-diazabicyclo[3.2.1]octan-3-yl)-2-(((2R,7aS)-2-fluorotetrahydro-1H-pyrrolizin-7a(5H)-yl)methoxy)-8-methyl-6-(trifluoromethyl)quinazolin-7-yl)-7-fluorobenzo[d]thiazol-2-amine]	58 nM	4.8 nM	0.12 nM
Nc1nc2c(-c3c(C(F)(F)F)cc4c(N5CC6CCC(C5)N6)nc(OC[C@@]56CCCN5C[C@H](F)C6)nc4c3F)cc(F)c(F)c2s1 [Example E85, 4-(4-(3,8-diazabicyclo[3.2.1]octan-3-yl)-8-fluoro-2-(((2R,7aS)-2-fluorotetrahydro-1H-pyrrolizin-7a(5H)-yl)methoxy)-6-(trifluoromethyl)quinazolin-7-yl)-6,7-difluorobenzo[d]thiazol-2-amine]	124 nM	5.6 nM	0.21 nM
CC1(N2CCCCC2)CN(c2nc(N3CC4CCC(C3)N4)c3cc(Cl)c(-c4ccc(F)c5sc(N)nc45)c(F)c3n2)C1 [Example E62, 4-(4-(3,8-diazabicyclo[3.2.1]octan-3-yl)-6-chloro-8-fluoro-2-(3-methyl-3-(piperidin-1-yl)azetidin-1-yl)quinazolin-7-yl)-7-fluorobenzo[d]thiazol-2-amine]	740 nM	660 nM	9.6 nM
Nc1nc2c(-c3c(C(F)(F)F)cc4c(N5CC6CCC(C5)N6)nc(OC[C@@]56CCCN5C[C@H](F)C6)nc4c3F)c(F)cc(F)c2s1 [Example E84, 4-(4-(3,8-diazabicyclo[3.2.1]octan-3-yl)-8-fluoro-2-(((2R,7aS)-2-fluorotetrahydro-1H-pyrrolizin-7a(5H)-yl)methoxy)-6-(trifluoromethyl)quinazolin-7-yl)-5,7-difluorobenzo[d]thiazol-2-amine]	28 nM	2.4 nM	0.36 nM
Nc1nc2c(-c3c(C(F)(F)F)cc4c(N5CC6CCC(C5)N6)nc(OC[C@@]56CCCN5C[C@H](F)C6)nc4c3F)ccc(Cl)c2s1 [Example E83, 4-(4-(3,8-diazabicyclo[3.2.1]octan-3-yl)-8-fluoro-2-(((2R,7aS)-2-fluorotetrahydro-1H-pyrrolizin-7a(5H)-yl)methoxy)-6-(trifluoromethyl)quinazolin-7-yl)-7-chlorobenzo[d]thiazol-2-amine]	61 nM	3.8 nM	0.13 nM
Nc1nc2c(-c3c(C(F)(F)F)cc4c(N5C6CCC5CNC6)nc(OC[C@@]56CCCN5C[C@H](F)C6)nc4c3F)ccc(F)c2s1 [Example E60, 4-(4-(3,8-diazabicyclo[3.2.1]octan-8-yl)-8-fluoro-2-(((2R,7aS)-2-fluorotetrahydro-1H-pyrrolizin-7a(5H)-yl)methoxy)-6-(trifluoromethyl)quinazolin-7-yl)-7-fluorobenzo[d]thiazol-2-amine]	34 nM	2.6 nM	0.27 nM
Nc1nc2c(-c3c(Cl)cc4c(N5CC6CCC(C5)N6)nc(OCC56CCCN5CC(F)C6)nc4c3F)ccc(F)c2s1 (stereo not drawn) [Example E54, 4-(4-(3,8-diazabicyclo[3.2.1]octan-3-yl)-6-chloro-8-fluoro-2-((2-fluorotetrahydro-1H-pyrrolizin-7a(5H)-yl)methoxy)quinazolin-7-yl)-7-fluorobenzo[d]thiazol-2-amine]	205 nM	7.5 nM	0.35 nM
CNC1C[C@H]2CC[C@@H]1N2c1nc(OC[C@@H]2C[C@@H](F)CN2C)nc2c(F)c(-c3ccc(F)c4sc(N)nc34)c(Cl)cc12 (stereo partly drawn) [Example E59, 4-(6-chloro-8-fluoro-2-(((2S,4R)-4-fluoro-1-methylpyrrolidin-2-yl)methoxy)-4-((1S,4R)-2-(methylamino)-7-azabicyclo[2.2.1]heptan-7-yl)quinazolin-7-yl)-7-fluorobenzo[d]thiazol-2-amine]	1400 nM	390 nM	14 nM
